Biological target: RoxA (RoxA-Wt, rubber oxygenase A) (Xanthomonas sp. 35Y, UniProt Q7X0P3)
Conditions: RoxA as isolated (oxygenated haem), pyridine 2 mM, pH 7; N-terminal haem iron, displaces bound dioxygen

RoxA (RoxA-Wt, rubber oxygenase A), sequence (Q7X0P3 entry or part of it): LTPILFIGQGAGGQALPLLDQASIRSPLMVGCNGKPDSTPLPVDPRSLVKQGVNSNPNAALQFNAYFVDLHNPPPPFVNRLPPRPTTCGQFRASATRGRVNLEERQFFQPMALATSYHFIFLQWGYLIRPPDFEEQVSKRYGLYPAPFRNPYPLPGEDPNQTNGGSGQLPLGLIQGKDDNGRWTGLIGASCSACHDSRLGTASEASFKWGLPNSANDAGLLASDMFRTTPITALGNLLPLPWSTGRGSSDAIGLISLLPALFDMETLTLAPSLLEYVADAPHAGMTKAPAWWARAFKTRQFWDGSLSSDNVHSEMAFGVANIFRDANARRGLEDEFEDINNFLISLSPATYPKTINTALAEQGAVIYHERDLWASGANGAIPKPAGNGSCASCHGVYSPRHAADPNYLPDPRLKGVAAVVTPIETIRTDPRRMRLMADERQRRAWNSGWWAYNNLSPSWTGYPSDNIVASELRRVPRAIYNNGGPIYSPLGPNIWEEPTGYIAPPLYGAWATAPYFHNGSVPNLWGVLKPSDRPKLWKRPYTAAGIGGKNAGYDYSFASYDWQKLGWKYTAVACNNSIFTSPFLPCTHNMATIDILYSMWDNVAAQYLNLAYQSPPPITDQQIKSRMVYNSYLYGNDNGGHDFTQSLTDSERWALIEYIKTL

Structure (SMILES): c1ccncc1 [pyridine]
- UV-vis spectroscopy (549 nm band), EPR: displacement of haem-bound dioxygen by N-heterocycles that then serve as artificial ligands to a ferrous haem
